Assay results reported in patent US20230066286A1, “DEUTERATED TRYPTAMINE DERIVATIVES AND METHODS OF USE” (priority 2020, published 2023).

Columns and labels:
[1] = system: rat liver microsomes; test: Metabolic stability in rat liver microsomes (RLM); details: for RLM (metabolized or not): last time point 120 min; for RLM, % (half-life as % vs. the related nondeuterated compound): values in square brackets are within 10% difference (assay's accuracy), no deuteration effect
[2] = target: T1, hrMAO-A (Homo sapiens, UniProt P21397); test: Metabolic stability in the presence of hrMAO-A; format: in vitro ADME; details: for MAO (metabolized or not) / MAO, % (half-life as % vs. the related nondeuterated compound): MAO-A assay; for MAO (metabolized or not): last time point 120 min; for MAO, % (half-life as % vs. the related nondeuterated compound): values in square brackets are within 10% difference (assay's accuracy), no deuteration effect
T1 construct: purchased XenoTech Lot# 8213001
T1 sequence (P21397 1-527): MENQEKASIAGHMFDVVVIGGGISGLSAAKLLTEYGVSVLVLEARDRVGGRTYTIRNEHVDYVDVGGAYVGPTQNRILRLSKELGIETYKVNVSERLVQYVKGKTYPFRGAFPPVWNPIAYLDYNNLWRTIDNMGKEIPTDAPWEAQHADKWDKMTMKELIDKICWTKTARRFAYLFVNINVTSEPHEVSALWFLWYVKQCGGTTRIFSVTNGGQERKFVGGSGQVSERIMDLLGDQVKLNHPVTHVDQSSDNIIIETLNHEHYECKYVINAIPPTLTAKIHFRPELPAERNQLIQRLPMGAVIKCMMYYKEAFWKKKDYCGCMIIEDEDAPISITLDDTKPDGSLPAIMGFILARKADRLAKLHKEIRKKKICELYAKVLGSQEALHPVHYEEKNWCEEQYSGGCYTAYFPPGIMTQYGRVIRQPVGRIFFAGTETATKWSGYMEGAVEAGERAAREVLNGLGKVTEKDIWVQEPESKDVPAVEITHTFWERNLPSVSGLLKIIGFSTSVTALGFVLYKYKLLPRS
Description: The reaction mixture was prepared as described below. The co-dosed TAs were added into the reaction mixture at a final concentration of 1 microM each. The positive control, kynuramine (25 microM), was run simultaneously with the TAs in a separate reaction. The reaction mixture (without TAs or kynuramine) was equilibrated in a shaking water bath at 37° C. for 5 minutes. The reaction was initiated by the addition of the TAs or kynuramine, and the mixture was incubated in a shaking water bath at 37° C. Aliquots (100 microL) of the TA reaction mixture were withdrawn at 0, 5, 10, 20, 30, 60, and 120 minutes. Aliquots (100 microL) of the positive control reaction mixture were withdrawn at 0 and 30 minutes. TA and kynuramine samples were immediately combined with 100 microL of ice-cold 100% MeCN containing 0.1% formic acid and IS to terminate the reaction. The samples were then mixed and centrifuged to precipitate proteins. All TA samples were assayed by LC-HRAMS. The PARR (analyte to IS) at each time point was compared to the PARR at time 0 to determine the percent remaining at each time point. Reaction composition: hrMAO 0.02 mg/mL; Potassium Phosphate, pH 7.4 100 mM; Magnesium Chloride 5 mM; Test Articles (each) 1 microM.

[3] = Blood-to-plasma ratio (BPR), parent drug in brain and plasma of rats; format: in vivo, rat; details: % change vs. non-deuterated material
Description: (§1) The key PK parameters (presented as a % change vs. non-deuterated materials) are presented in Table 3 to include half-life (T½), area under the curve (AUC), bioavailability (F) and blood-to-plasma ration (BPR). Pharmacokinetics of the deuterated tryptamines was studied in rats. In a typical experiment, run as a cassette dosing, two groups of 5 Wistar female rats (200-250 g) with surgically inserted jugular vein catheter (Charles River, Andover, MA) were fasted for 12 h and then administered 5 mg/kg of the deuterated and 5 mg/kg of the related non-deuterated analog, by oral gavage or via a catheter for each group. At time points 0, 15, 30, 60 min, and 2, 4, 8, and 24 h, the resulting plasma was analyzed for the parent molecule using LC/MS spectroscopy. Two separate groups of 5 animals were used for determining blood-to-plasma ratio (BPR). Each group was sacrificed at time points 15 and 30 min, respectively, and the concentration of the parent drug was determined in the […] and plasma by LC/MS spectroscopy.

[4] = PK study in rats, cassette dosing; format: in vivo, rat; details: % change vs. non-deuterated material, 5 mg/kg, oral gavage or via catheter
Description: as §1

[5] = oral; cited from earlier work

With `CC(C)N(CCc1c[nH]c2cccc(O)c12)C(C)C` the “RLM (metabolized or not)” value ([1]; RLM assay) was “R”.

For `COc1ccc2[nH]cc(CCN(C)C)c2c1`, the “MAO (metabolized or not)” value [2] was “R” and the “RLM (metabolized or not)” value ([1]; RLM assay) was “R”.

For `CCN(C)CCc1c[nH]c2ccccc12`, the “MAO (metabolized or not)” value [2] was “R” and the “RLM (metabolized or not)” value ([1]; RLM assay) was “R”.

For `[2H]C([2H])(NCC)C([2H])([2H])c1c[nH]c2ccccc12`, the “MAO, % (half-life as % vs. the related nondeuterated compound)” value [2] was 140%.

In the case of `[2H]C([2H])([2H])N(C([2H])([2H])[2H])C([2H])([2H])C([2H])([2H])c1c[nH]c2ccccc12` [DMT-d10], the “stability in the MAO-A enzymatic assay vs. less deuterated DMT analogs” value ([2]; MAO-A enzymatic assay) is reported as “superiority”, the “% Remaining of Initial 0 min” value ([2]; hrMAO-A, d8 and d10 analogs of DMT) is reported as 100.0% and the “% Remaining of Initial 5 min” value ([2]; hrMAO-A, d8 and d10 analogs of DMT, 5 min) is reported as 99.0%. For the same compound, the “% Remaining of Initial 0 min” value ([2]; hrMAO-A, four test articles) was 100%, the “% Remaining of Initial 0 min” value ([1]; RLM, d8 and d10 analogs of DMT) was 100% and the “% Remaining of Initial 10 min” value ([1]; RLM, d8 and d10 analogs of DMT, 10 min) was 56.0%. The “% Remaining of Initial 0 min” value ([1]; RLM, four test articles) was 100% and the “metabolic stability vs. less deuterated DMT analogs” value ([1]; rat liver microsomes) was “Further enhancement of metabolic stability”.

In the case of `CCN(CC)CCc1c[nH]c2cccc(OC)c12`, the “RLM (metabolized or not)” value ([1]; RLM assay) is reported as “R”.

In the case of `CCNCCc1c[nH]c2cccc(O)c12`, the “RLM (metabolized or not)” value ([1]; RLM assay) is reported as “R”.

With `[2H]C([2H])(Cc1c[nH]c2ccccc12)N(C)C` [DMT-d2] the CLint ([2]; hrMAO-A, four test articles) was 0.126 mL/min/ mg protein, the “% Remaining of Initial 0 min” value ([2]; hrMAO-A, four test articles) was 100% and the “% Remaining of Initial 60 min” value ([2]; hrMAO-A, four test articles, 60 min) was 76.0%. For the same compound, the “% Remaining of Initial 0 min” value ([1]; RLM, four test articles) was 100% and the “% Remaining of Initial 60 min” value ([1]; RLM, four test articles, 60 min) was 32.0%.

For `CCN(C)CCc1c[nH]c2ccc(OC)cc12`, the “MAO (metabolized or not)” value [2] was “R” and the “RLM (metabolized or not)” value ([1]; RLM assay) was “R”.

In the case of `[2H]c1[nH]c2c([2H])c([2H])c([2H])c([2H])c2c1C([2H])([2H])C([2H])([2H])N(C([2H])([2H])[2H])C([2H])([2H])[2H]` [DMT-dis], the “half-life compared to DMT-d10” value ([1]; RLM assay, additional deuteration in the phenyl ring) is reported as “no improvement in half-life”.

In the case of `[2H]C([2H])(c1c[nH]c2cccc(OC)c12)C([2H])([2H])N(C)C`, the “RLM, % (half-life as % vs. the related nondeuterated compound)” value (“RLM, %” below) ([1]; RLM assay) is reported as 190%.

In the case of `[2H]C([2H])(Cc1c[nH]c2ccc(OC)cc12)N(C)C` [5-MeO-DMT-α,α-d2], the “BPR, 15 min, deuterium kinetic isotope effect (% change)” value ([3]; rats sacrificed at 15 min) is reported as 120%, the “BPR, 30 min, deuterium kinetic isotope effect (% change)” value ([3]; rats sacrificed at 30 min) is reported as 180% and the “AUC, deuterium kinetic isotope effect (% change)” value [4] is reported as 60%. For the same compound, the “T½, deuterium kinetic isotope effect (% change)” value [4] was 30%.

With `[2H]C([2H])(Cc1c[nH]c2ccccc12)NC([2H])([2H])C([2H])([2H])[2H]` the “MAO, % (half-life as % vs. the related nondeuterated compound)” value [2] was 170%.

In the case of `[2H]C([2H])(NC)C([2H])([2H])c1c[nH]c2cccc(O)c12`, the “RLM, %” value ([1]; RLM assay) is reported as 160%.

For `COc1cc(CCNCc2ccccc2OC)c(OC)cc1Cl` [2C-C-NBOMe, 2-(4-Chloro-2,5-dimethoxyphenyl)-N-[(2-methoxyphenyl)methyl]ethan-l-amine], the “orally active dose, as low as” value [5] is given as 25 µg and the “very strong psychedelic doses” value [5] is given as 500 to 700 µg.

With `CNCCc1c[nH]c2ccccc12` the “MAO (metabolized or not)” value [2] was “R” and the “RLM (metabolized or not)” value ([1]; RLM assay) was “R”.

With `[2H]C([2H])(NCC)C([2H])([2H])c1c[nH]c2cccc(O)c12` the “RLM, %” value ([1]; RLM assay) was “[94] %”.

For `CCN(C)CCc1c[nH]c2ccc(O)cc12`, the “MAO (metabolized or not)” value [2] was “R” and the “RLM (metabolized or not)” value ([1]; RLM assay) was “R”.

In the case of `CCN(CC)CCc1c[nH]c2ccccc12`, the “RLM (metabolized or not)” value ([1]; RLM assay) is reported as “R”.

With `CNCCc1c[nH]c2cccc(O)c12` the “MAO (metabolized or not)” value [2] was “R” and the “RLM (metabolized or not)” value ([1]; RLM assay) was “R”.

With `CC(C)NCCc1c[nH]c2cccc(O)c12` the “RLM (metabolized or not)” value ([1]; RLM assay) was “R”.

In the case of `CCN(CC)CCc1c[nH]c2ccc(O)cc12`, the “RLM (metabolized or not)” value ([1]; RLM assay) is reported as “R”.

In the case of `C=CCN(CC=C)CCc1c[nH]c2ccccc12`, the “RLM (metabolized or not)” value ([1]; RLM assay) is reported as “R”.

For `COc1cccc2[nH]cc(CCN(C)C)c12`, the “MAO (metabolized or not)” value [2] was “R” and the “RLM (metabolized or not)” value ([1]; RLM assay) was “R”.

In the case of `CC(C)NCCc1c[nH]c2ccccc12`, the “RLM (metabolized or not)” value ([1]; RLM assay) is reported as “R”.

For `[2H]C([2H])(c1c[nH]c2cccc(O)c12)C([2H])([2H])N(C(C)C)C(C)C`, the “RLM, %” value ([1]; RLM assay) was “[97] %”.

With `CN(C)CCc1c[nH]c2ccccc12` [DMT] the CLint ([2]; hrMAO-A, four test articles) was 0.638 mL/min/ mg protein, the “% Remaining of Initial 0 min” value ([2]; hrMAO-A, four test articles) was 100% and the “% Remaining of Initial 0 min” value ([1]; RLM, four test articles) was 100%. The “% Remaining of Initial 20 min” value ([1]; RLM, four test articles, 20 min) was 41.0%.

In the case of `CCN(C)CCc1c[nH]c2cccc(OC)c12`, the “MAO (metabolized or not)” value [2] is reported as “R” and the “RLM (metabolized or not)” value ([1]; RLM assay) is reported as “R”.

For `CCN(CC)CCc1c[nH]c2ccc(OC)cc12`, the “RLM (metabolized or not)” value ([1]; RLM assay) was “R”.

In the case of `[2H]c1ccc2[nH]c([2H])c(CCN([2H])CC)c2c1O`, the “RLM (metabolized or not)” value ([1]; RLM assay) is reported as “R”.

In the case of `[2H]C([2H])(c1c[nH]c2ccccc12)C([2H])([2H])N(C)C` [DMT-d4], the CLint ([2]; hrMAO-A, four test articles) is reported as 0.119 mL/min/ mg protein, the “% Remaining of Initial 0 min” value ([2]; hrMAO-A, four test articles) is reported as 100% and the “% Remaining of Initial 0 min” value ([1]; RLM, four test articles) is reported as 100%.

For `[2H]C([2H])([2H])C([2H])([2H])NC([2H])([2H])C([2H])([2H])c1c[nH]c2cccc(O)c12`, the “RLM, %” value ([1]; RLM assay) was “[93] %”.

For `C=CCNCCc1c[nH]c2ccccc12`, the “RLM (metabolized or not)” value ([1]; RLM assay) was “R”.

For `[2H]C([2H])(c1c[nH]c2ccc(OC)cc12)C([2H])([2H])N(CC)CC`, the “RLM, %” value ([1]; RLM assay) was “[95] %”.

For `CCNCCc1c[nH]c2ccccc12`, the “MAO (metabolized or not)” value [2] was “R” and the “RLM (metabolized or not)” value ([1]; RLM assay) was “R”.

In the case of `CN(C)CCc1c[nH]c2ccc(O)cc12`, the “MAO (metabolized or not)” value [2] is reported as “R” and the “RLM (metabolized or not)” value ([1]; RLM assay) is reported as “R”.
